Values quoted from earlier work in US20190282525A1, “TIOPRONIN ORAL COMPOSITION” (CRONUS RESEARCH LABS PRIVATE LIMITED, priority 2018, published 2019).

Conditions: 'might be expected'

CC(S)C(=O)NCC(=O)O (stereo not drawn) [tiopronin, α-mercaptopropionylglycine]
reduction in urinary cystine (tiopronin dosage of 1 g/day): 250 to 350 mg/day
decline in urinary cystine (tiopronin dosage of 2 g/day): approximately 500 mg/day
